# Test results: US20020006915A1, “Use of COX-2 inhibitors to treat sepsis, complications thereof, and EP receptor modulation” (priority 2000, published 2002)
# Entries after “also recorded” stand apart in the source; their conditions may differ. Marks after values point to notes of the source that are not given here.
# Legend:
# [1] = test system: plasma PGE2; assay: Plasma PGE2 levels at 1 and 7 days after trauma; type: in vivo, BALB/c mice
# Method: Plasma PGE2 levels were determined in separate experiments by sacrificing mice at 1 day and at 7 days after treatment with NS-398. There was an increase in PGE2 levels at 1 and 7 days after traumatic injury compared with uninjured controls.
# [2] = test system: LPS stimulated human PBMC's; assay: PGE2, LTB4 and TNF-α production from LPS stimulated PBMC's co-incubated with NS-398; type: cell-based
# Method: The study included 10 patients sustaining either long-bone fracture or ≧15% total body surface burn and 10 control subjects (protocol approved by the Weill Medical College of Cornell University Internal Research Board). Blood samples were obtained within 12 hours of fracture or burn injury. Immune compromised patients including those with cancer, collagen-vascular diseases, HIV or any recent history of steroid or NSAID drug use were excluded from this study. Each patient sample was run simultaneously with a control sample.
# Peripheral venous blood samples were collected into two heparin-EDTA tubes and placed on ice. 6 mL of Histopaque (Sigma Chemical Co., St. Louis, Mo.) was layered into a conical 15 mL tube and 6 mL of undiluted whole blood was gently layered over the top. Tubes were then centrifuged at 1000 rpm for 30 minutes at room temperature. A sterile pasteur pipet was used to gently collect the layer of PBMC's which were then transferred to a new 15 mL tube. Samples were washed twice with 10 mL Ca^+2 and Mg^+2-free Hanks Buffered Salt Solution (Gibco BRL-Life Technologies, Grand Island, N.Y.) and centrifuged at 1100 rpm for 10 minutes. The supernatant was discarded and the pellet resuspended in complete RPMI-1640 (Gibco BRL-Life Technologies, Grand Island, N.Y.) with 10% heat inactivated fetal bovine serum (Gibco BRL-Life Technologies, Grand Island, N.Y.) and 1% antibiotic/antimycotic solution. Cells were then adjusted to a final concentration of 1×10^6 cells/mL and plated. Cells were incubated at 37° C. in a 5% CO2 atmosphere with supernatants harvested at 24 hours and frozen at −70° C. for determination of prostaglandin and cytokine production.
# (§1) Serial dilutions were made to co-culture cells with a final concentration of […] NS-398 in a 0.1% DMSO. Control and trauma groups were co-cultured with 0.1% DMSO vehicle for comparisons with NS-398 treated groups.
# [3] = test system: BALB/c mice subjected to cecal ligation and puncture; assay: Survival after cecal ligation and puncture 7 days after trauma, NS-398 twice a day over 7 days; type: in vivo
# From the text: All cytokine results are reported as mean±SEM of 8 mice per group. The ANOVA was used to determine the significance of the differences between means of traumatized±treatment versus control±treatment groups. A P value of <0.05 was considered significant. For survival studies, Kaplan-Meier (Log-rank) statistical analysis was used to compare all four groups studied. A P value of <0.05 was considered significant.
# To evaluate the biological relevance of NS-398, mice were randomized into the four treatment groups. After 7 days, all mice were subjected to cecal ligation and puncture (CLP) and followed for survival over 10 days, when remaining mice were euthanized. […] Only 9% of control mice survived after 200 hours compared to a significant increase in survival of trauma+NS-398 treated mice in which 45% survived.
# BALB/C mice (n=8/group) were given 10mg/kg NS398 intraperitoneally BID for 7 days, starting immediately after sham injury or trauma (femur fracture+40% hemorrhage). Four groups, sham+placebo (C); sham+NS398 (CN); trauma+placebo (T); or trauma+NS398 (TN) were studied. On day 7 after trauma, mice were sacrificed and splenic macrophages evaluated for PGE2, TNF-α and NO production (via Student's t-test). In a separate study, mice (n=10-11/group) were traumatized and given NS398 for 7 days. On day 7, cecal ligation and puncture was performed, and mice evaluated for survival over 3 weeks (via Log-rank test).
# [4] = test system: EP4 receptor; assay: EP4 receptor expression in LPS stimulated human PBMC's via RT-PCR; type: cell-based; conditions: PBMC's after injury, co-incubation with NS-398
# Method: as §1
# [5] = test system: IκB-α; assay: Western blot of cytosolic IκB-α in splenic macrophages; type: in vivo, BALB/c mice; conditions: NS-398 treatment after trauma, over 7 days
# Method: Cytoplasmic fractions were collected after splenic macrophages were stimulated (as described above) and then boiled in equal volumes of loading buffer (125 mM Tris-HCl, pH 6.8, 4% sodium dodecyl sulfate, 20% glycerol and 10% 2-mercaptoethanol) for 3 minutes and were then separated by electrophoresis on a tris-glycine gradient gel. The proteins were then transferred to nitrocellulose membranes (Xcell II Blot Module; Novex). The membranes were blocked with 10% non-fat dried milk in Tris-buffered saline (TBS), pH 7.6, containing 0.05% tween-20 (TTBS) for 1 hour and then incubated with a polyclonal rabbit anti-mouse antibody to IκB-α (Santa Cruz Laboratories) for 45 minutes. After washing twice in TTMS, the blots were incubated with a peroxidase-conjugated goat anti-rabbit IgG secondary antibody for 15 minutes. The blots were washed in TTBS for 5 minutes three times, then in TBS for 5 minutes, incubated in enhanced chemiluminescence reagents (ECL, Amersham Life Sciences, Buckingham, England) and exposed on radiographic film (Kodak, Rochester, N.Y.).
# [6] = test system: COX-2; type: cell-based, human
# Method: Isolated PBMC's from various groups were incubated for 18 hours at which time all groups were treated with 10 ng/mL lipopolysaccharaide (LPS) 055:B5 (Sigma, St. Louis, Mo.) for 6 hours RT-PCR samples were run in a blinded fashion. Extraction of mRNA was with an RNA extraction kit (Qiagen). Total mRNA (1 μg) was reverse transcribed in an RT mastermix (50 mM KCl, 10 mM tris-HCl, 5 mM MgCl2, 1 mM dNTP, 2.5 mM oligo d(T), 50 units of RT, 20 units of RNAse inhibitor, and nuclease free water; all reagents from Perkin-Elmer, Foster City, Calif.) with an initial 10 minute incubation at room temperature and then 42° C. for 10 minutes. […] The cDNA was run on a 1% agarose gel with 3 μL of ethidium bromide (10 mg/mL solution) and bands were visualized under UV transillumination and recorded in an image acquisition processing and analysis program (Eagle Eye 2, Stratagene).
# NS-398 (N-[2-(cyclohexyloxy)-4-nitrophenyl]-methanesulfonamide) was obtained from Cayman Chemical (Ann Arbor, Mich.) and prepared in DMSO at a concentration of 1 mM. Serial dilutions were made to co-culture cells with a final concentration of 10 mM NS-398 in a 0.1% DMSO. […]
# To further evaluate the expression of COX-2, samples of LPS stimulated PBMC's were evaluated from control and injured subjects as well as samples co-incubated with 10 μM NS-398.
# [7] = test system: EP2 receptor; assay: EP2 receptor expression in LPS stimulated human PBMC's via RT-PCR; type: cell-based; conditions: PBMC's after injury, co-incubation with NS-398
# Method: as §1
structure (smiles),measurement,setting,value
"CS(=O)(=O)Nc1ccc([N+](=O)[O-])cc1OC1CCCCC1 [NS-398, N-(2-cyclohexyloxy-4-nitrophenyl)methanesulfonamide]",Plasma PGE2 Day 1,[1]; Control + NS-398,"24,652 pg/ml"
same,Plasma PGE2 Day 7,[1]; Control + NS-398,"7,244 pg/ml"
same,Plasma PGE2 Day 1,[1]; Trauma + NS-398,"26,370 pg/ml"
same,Plasma PGE2 Day 7,[1]; Trauma + NS-398,"4,354 pg/ml"
same,Plasma PGE2 levels (in words),"[1]; control and injured mice, 1 and 7 days",attenuated in both control and injured mice
same,TNF-α production,"[2]; PBMC's after injury, co-culture with NS-398, P<0.05",significantly decreased production
same,PGE2 production,"[2]; PBMC's of injured patients, co-culture with 10μM NS-398, T vs TN P<0.001",significantly reduced the production of PGE2
same,LTB4 production,"[2]; control cells, co-culture with NS-398, P<0.05",significant increase in the production of LTB4
same,LTB4 production,"[2]; trauma cells, co-culture with NS-398, P<0.004",significant increase in the production of LTB4
same,survival,"[3]; C + NS398, 10 mg/kg i.p. BID for 7 days, CLP on day 7",0%
same,survival,"[3]; T + NS398, 10 mg/kg i.p. BID for 7 days, CLP on day 7",45%*
same,survival (in words),[3]; control+NS-398 mice after CLP,died shortly after CLP
same,survival,"[3]; trauma+NS-398 treated mice, after 200 hours after CLP",45%
same,EP4 receptor expression,[4],reversed; also recorded: restored
same,cytosolic IκB,[5],an increase in cytosolic IκB
same,COX-2 expression,[6],reduced COX-2 expression to levels similar to that expressed by control cells
same,EP2 receptor expression,[7],returns to control levels; also recorded: restored
